Measurements published in patent publication US20180228703A1, “Improved Hyaluronan and Modified-Hyaluronan in Biomedical Applications” (CHL Industries, LLC, priority 2015, published 2018).

Experiments:
[1] = test system: Vitrase injectable sterile hyaluronidase; assay: Anti-hyaluronidase activity: viscosity of 1% HA before and after addition of Vitrase; type: biochemical, Ovine
Method: In order to assess the anti-hyaluronidase activity of the CHLcu stabilizing agent, 40 units (0.2 mL) of Vitrase® injectable sterile hyaluronidase solution (Ovine, 200 USP Units/mL) is added to each of four 1% HA samples that have been stored at 25° C. for six weeks with (a) no CHLCu; (b) 50 ppm CHLCu; (c) 100 ppm CHLCu; and (d) 250 ppm CHLCu). Anti-hyaluronidase activity is measured by comparing the viscosity of the test samples before and after addition of Vitrase®.
A product containing 1% HA (Hycoat® Sterile Wound Management Solution; Hyaluronate Sodium, Solution 20 mg/2 mL; average molecular weight 1.0-1.3 million Daltons) and 100 mcg/mL CHLCu was combined with 40 units (0.2 mL) of Vitrase® injectable sterile hyaluronidase solution (Ovine, 200 USP Units/mL) and stored at 25° C. for 30 minutes. The viscosity of the combined solution of sodium HA, CHLCu, and Vitrase® composition was seen to drop from 450.6 cps to 161.8 cps, or 35.9% of initial viscosity.
By way of comparison, the viscosity of the same 1% HA solution without CHLCu was measured, and then exposed to 40 units of the same Vitrase. After 30 minutes of Vitrase® contact, the 1% HA solution underwent a viscosity change from 516.2 cps to 43.69 cps or only 8.5% of the initial HA viscosity.

[2] = Viscosity of HA solution on storage at 25, 40 and 50° C. (cone-plate viscometer); type: physicochemical
Method: Viscosity measurements are made of vials of sterile, injectable grade, high molecular weight 1% sodium hyaluronate solution (Hycoat® Sterile Wound Management Solution; Hyaluronate Sodium, Solution 20 mg/2 mL; avg. molecular weight 1.0-1.3 million Daltons; supplied by Hymed Group, Bethlehem, Pa.) containing Chlorophyllin Copper Complex Sodium at varying concentrations as summarized in the table below. Preferably, dissolved and atmospheric oxygen is purged from the HA solution by displacing the headspace in the vial with Nitrogen or Argon.
Sodium copper chlorophyllin complex (disodium copper isochlorin e4 minimum content of 25% based on dry weight of complex; supplied by Frontier Scientific, Logan, Utah) is added to the 1% HA test solutions (i.e., 2 mL Hycoat® described above) as follows: 1 gram of CHLcu is added to 99 grams of distilled water, heated to 50° C., mixed for 30 minutes with a magnetic stirrer, and then cooled to room temperature. The specified concentration of CHLCu solution is drawn into a syringe through a 0.45u syringe filter and added to the sterile vial of 1% HA solution under a laminar flow hood. For example, in order to prepare a 1% HA solution containing 100 ppm of CHLcu in the final HA solution 20.5 microliters (0.0205 mL) of the 1% CHLCu solution is injected into the vial of 2 mL of sterile HA solution.
Each of the 2 mL test samples (with and without CHLcu) are stored at 25° C., 40° C., and 50° C. for up to eight weeks. Viscosity measurements are taken at baseline and at 1, 2, 4, 6 and 8 weeks after storage at the three temperatures.
0.5 mL of the test sample is then withdrawn from each vial, causing a temporary shear in the sample viscosity.
All samples (1% HA+CHLCu) are equilibrated prior to viscosity measurement. […]
Each withdrawn sample is allowed to further equilibrate for five additional minutes before taking viscosity measurements. Viscosity is preferably measured at 2 rpm with a cone-plate viscometer (e.g., Brookfield LVD-II Pro Cone/Plate viscometer; CPE-51 spindle from Brookfield Engineering Laboratories, Inc. Middleboro, Mass.).

COL15A1 = assay: Collagen gene expression in adult human dermal fibroblasts, PCR array; type: cell-based; conditions: HDF, 24 hours
Method: (§1) Using adult human dermal fibroblasts (Cell Applications, San Diego, Calif.) (“HDF”), the effectiveness of three chlorophyllin materials—Isochlorin E4 Disodium (“E4”); Sodium Copper Chlorophyllin C3999 (“C3999”); and Chlorophyllin Sodium Copper Salt (“CSCS”)—are assessed for the ability to positively effect the differential expression of at least one of the following three collagen genes—COL15A1; COL1A1; and COL5A1. After cell viability tests, the effect of 2 μg/ml E4, 10 μg/ml CSCS, and 10 μg/ml C3999 on adult human dermal fibroblasts (100,000 cells/well) on gene expression were evaluated using PCR arrays.
(§2) HDF cells were incubated for 24 hours in a 12-well plate at a concentration of 100,000 cells/well in Dulbecco's Modified Eagle Medium (DMEM) with 5% Fetal Bovine Serum (FBS). The three test materials were added to the wells, incubated for 24 hours. […] RNA was extracted and purified with NucleoSpin RNA II kit from Machery-Nagel (Bethlehem, Pa.). Purified total RNA was analyzed at 230 nm, 260 nm and 280 nm with Agilent HP-8452A diode array spectrophotometer. The concentration of RNA was equalized across the samples and the expression of genes of interest was measured by real-time quantitative PCR with BioRad iCycler iQ Detection System using Human Extracellular Matrix & Adhesion Molecules PCR array PAHS-13ZA from Qiagen (formerly SA Biosciences, Frederick, Md.). Reactions were performed with 1st strand synthesis kit, SYBR Green master mix and PCR setup parameters from Qiagen. Results were normalized to housekeeping genes with the RT2 Profiler PCR Array Data Analysis version 3.5 software
(§3) Genes were considered differentially expressed if the level of expression was detected in less than 30 cycles, and modulation was 1.5 fold or higher.

COL1A1 = assay: as above; type: cell-based; conditions: HDF, 24 hours
Method: as §1, §2, §3

COL5A1 = assay: as above; type: cell-based; conditions: HDF, 24 hours
Method: as §1, §2, §3

[3] = test system: non-soluble type I collagen; assay: Non-soluble type I collagen production by HDF, direct ELISA; type: cell-based, human; conditions: for % CTRL (COL-I): 4 days, vs water; for % CTRL (Cell # Standardized): non-soluble collagen I standardized to cell numbers; for Cell # Standardized: repeat testing, type I collagen deposition, H2O = 100
Method: Adult human dermal fibroblasts (Cell Applications, San Diego, Calif.) were plated in DMEM without phenyl red supplemented with 5% FBS and 1% penicillin/streptomycin (PS) at a concentration of 8,000 cells/well. Test materials, which were stored at 4° C. until dissolved at 20 mg/ml in ddH2O, were added the next day on attached exponentially-growing cells.
Cells were then fixed with 2.5% trichloroacetic acid (TCA) at 4° C., dried overnight, and tested for non-soluble type I collagen, using direct ELISA.
(§4) Cells proliferation was quantified by staining cytoskeletons with sulforhodamine B according to the colorimetric method of Voigt, “Sulforhodamine B assay and chemosensitivity,” Methods Mol. Med. Vol. 110, pp. 39-48 (2005). Statistical significance was assessed with two-tailed paired Student test. Deviations of >15% as compared to the negative water control with p values below 0.05 were considered statistically significant.

[4] = test system: adult human dermal fibroblasts; assay: Cell proliferation, sulforhodamine B staining; type: cell-based; conditions: 4 days, vs water
Method: Adult human dermal fibroblasts (Cell Applications, San Diego, Calif.) were plated in DMEM without phenyl red supplemented with 5% FBS and 1% penicillin/streptomycin (PS) at a concentration of 8,000 cells/well. Test materials, which were stored at 4° C. until dissolved at 20 mg/ml in ddH2O, were added the next day on attached exponentially-growing cells. Negative and positive controls were, respectively, type I sterile water and L-Ascorbic acid 2-phosphate sesquimagnesium salt (“MAP”) (Sigma-Aldrich).
as §4

HDF = assay: Long term HDF viability, MTT assay; type: cell-based, human; conditions: long-term incubation, 1 μg/mL
Method: The effect of long-term incubation of HDF with E4 is assessed by MTT, a colorimetric assay for assessing cell metabolic activity.

[5] = 1% HA (Hycoat) + 100 mcg/mL CHLCu, 40 units Vitrase, 25° C., 30 minutes

Substance | COL15A1 expression (modulation) (COL15A1; 10 μg/ml) [fold] | COL1A1 expression (modulation) (COL1A1; 10 μg/ml) [fold] | COL5A1 expression (modulation) (COL5A1; 10 μg/ml) [fold] | % CTRL (COL-I) ([3]; 5 μg/mL) [% CTRL] | % CTRL (COL-I) ([3]; 10 μg/mL) [% CTRL] | % CTRL (COL-I) ([3]; 20 μg/mL) [% CTRL] | % CTRL (Cell # Standardized) ([3]; 5 μg/mL) [% CTRL] | % CTRL (Cell # Standardized) ([3]; 10 μg/mL) [% CTRL] | % CTRL (Cell # Standardized) ([3]; 20 μg/mL) [% CTRL] | Cell # Standardized ([3]; 0.25 ug/ml) | Cell # Standardized ([3]; 1 μg/ml) | Cell # Standardized ([3]; 2 μg/ml) | Cell # Standardized ([3]; 5 μg/ml) | % CTRL (Cell #) ([4]; 5 μg/mL) [% CTRL] | % CTRL (Cell #) ([4]; 10 μg/mL) [% CTRL] | % CTRL (Cell #) ([4]; 20 μg/mL) [% CTRL] | further results
Chlorophyllin Copper Complex Sodium [CHLcu] | – | – | – | – | – | – | – | – | – | – | – | – | – | – | – | – | viscosity before Vitrase ([1]; 1% HA (Hycoat) + 100 mcg/mL CHLCu): 450.6 cps; % of initial viscosity after Vitrase [1, 5]: 35.9%; viscosity after Vitrase [1, 5]: 161.8 cps; loss of viscosity when challenged with hyaluronidase ([1]; product containing HA (or modified HA) and CHLCu): reduced loss of viscosity; viscosity change compared with samples not containing CHLCu ([2]; 1% HA, 25, 40, 50° C., up to eight weeks): less of a viscosity change; viscosity deviation from baseline after 8 weeks of storage ([2]; HA product stored with CHLcu about 50 to about 250 ppm, 40° C.): ≤ 5%; viscosity increase ([2]; HA product stored with CHLcu about 50 to about 250 ppm, 40° C., about 8 weeks): up to 25%
Chlorophyllin Sodium Copper Salt [CSCS] | 1.2 | 1.5 | 1.7 | 95 | 85 | 84 | 99 | 96 | 94 | 97 | 96 | 114 | 110 | 95 | 87 | 88 | –
Isochlorin E4 Disodium | – | – | – | 94 | 90 | – | 115 | 111 | – | 88 | 89 | 113 | 101 | 81 | 80 | – | COL15A1 expression (modulation) (COL15A1; 2 μg/ml): 1.2 fold; COL1A1 expression (modulation) (COL1A1; 2 μg/ml): 1.2 fold; COL5A1 expression (modulation) (COL5A1; 2 μg/ml): 1.5 fold; % CTRL (COL-I) ([3]; 2 μg/mL): 120 % CTRL; % CTRL (Cell # Standardized) ([3]; 2 μg/mL): 133 % CTRL; HDF cell metabolic activity (MTT) (HDF): unaffected; % CTRL (Cell #) ([4]; 2 μg/mL): 89 % CTRL
L-Ascorbic acid 2-phosphate sesquimagnesium salt [MAP, reference compound] | – | – | – | – | – | – | – | – | – | – | – | – | – | – | – | – | % CTRL (Cell #) ([4]; 50 μg/mL): 111 % CTRL; % CTRL (Cell #) ([4]; 100 μg/mL): 100 % CTRL
Sodium Copper Chlorophyllin C3999 | 1.5 | 1.2 | 1.3 | 97 | 110 | 121 | 101 | 118 | 145 | – | – | – | – | 95 | 92 | 83 | –
